According to ChEMBL document CHEMBL4007471, “Assessment of new triplet forming artificial nucleobases as RNA ligands directed towards HCV IRES IIId loop” (Bioorg Med Chem Lett, 2017):

Tests used:
[1] = target: Internal ribosome entry site (IRES); experiment: Binding affinity to HCV 5'-Alexa488-labeled IRES domain 3 loop RNA at 20 degC after overnight incubation by fluorescence assay; design: species or system Hepacivirus hominis
[2] = target: Internal ribosome entry site (IRES); experiment: Binding affinity to HCV 5'-Alexa488-labeled IRES domain 3 loop RNA at 5 degC after overnight incubation by fluorescence assay; design: species or system Hepacivirus hominis
[3] = target: Internal ribosome entry site (IRES); experiment: Binding affinity to HCV 5'-Alexa488-labeled IRES domain 3 loop RNA at 10 degC after overnight incubation by fluorescence assay; design: species or system Hepacivirus hominis
[4] = target: Internal ribosome entry site (IRES); experiment: Binding affinity to HCV 5'-Alexa488-labeled IRES domain 3 loop RNA at 15 degC after overnight incubation by fluorescence assay; design: species or system Hepacivirus hominis
[5] = tested on: Internal ribosome entry site (IRES); experiment: Binding affinity to HCV 5'-Alexa488-labeled IRES domain 3 loop RNA at 30 degC after overnight incubation by fluorescence assay; design: species or system Hepacivirus hominis
[6] = tested on: Internal ribosome entry site (IRES); experiment: Binding affinity to HCV 5'-Alexa488-labeled IRES domain 3 loop RNA at 36 degC after overnight incubation by fluorescence assay; design: species or system Hepacivirus hominis
[7] = tested on: Internal ribosome entry site (IRES); experiment: Binding affinity to HCV 5'-Alexa488-labeled IRES domain 3 loop RNA assessed as gibbs free energy change after overnight incubation by fluorescence assay; conditions: Hepacivirus hominis
[8] = tested on: Internal ribosome entry site (IRES); experiment: Binding affinity to HCV 5'-Alexa488-labeled IRES domain 3 loop RNA assessed as change in enthalpy after overnight incubation by fluorescence assay; conditions: Hepacivirus hominis
[9] = tested on: Internal ribosome entry site (IRES); experiment: Binding affinity to HCV 5'-Alexa488-labeled IRES domain 3 loop RNA assessed as change in entropy after overnight incubation by fluorescence assay; conditions: Hepacivirus hominis
[10] = target: Internal ribosome entry site (IRES); experiment: Binding affinity to HCV IRES 5'Alexa488-GCCGAGGAGUGUUGGGUCGCGCAAGGC-3' RNA at 20 degC after overnight incubation by fluorescence assay; design: species or system Hepacivirus hominis
[11] = target: Internal ribosome entry site (IRES); experiment: Binding affinity to HCV 5'-Alexa488-labeled IRES domain 3 loop RNA at 20 degC after overnight incubation in presence of 50-fold excess of tRNA by fluorescence assay; design: species or system Hepacivirus hominis
[12] = tested on: Internal ribosome entry site (IRES); experiment: Selectivity ratio of Kd for 5'-Alexa488-labeled IRES domain 3 loop RNA in presence of 50-fold excess of tRNA at 20 degC to Kd for HCV 5'-Alexa488-labeled IRES domain 3 loop RNA at 20 degC; conditions: Hepacivirus hominis
[13] = tested on: Internal ribosome entry site (IRES); experiment: Potency index, ratio of neomycin Kd to compound Kd for HCV 5'-Alexa488-labeled IRES domain 3 loop RNA at 20 degC; conditions: Hepacivirus hominis
[14] = tested on: Internal ribosome entry site (IRES); experiment: Selectivity ratio of Kd for HCV IRES 5'Alexa488-GCCGAGGAGUGUUGGGUCGCGCAAGGC-3' RNA at 20 degC to Kd for HCV 5'-Alexa488-labeled IRES domain 3 loop RNA at 20 degC; conditions: Hepacivirus hominis

Compound | Kd ([1]; read-out: Kd) [µM] | Kd ([2]; read-out: Kd) [µM] | Kd ([3]; read-out: Kd) [µM] | Kd ([4]; read-out: Kd) [µM] | Kd [5] | Kd [6] | Kd ([5]; read-out: Kd) [µM] | Kd ([6]; read-out: Kd) [µM] | deltaG [7] [kcal/mol] | deltaH [8] [kcal/mol] | TdeltaS [9] [kcal/mol] | Kd [1] | further results
NCCCCCC(=O)NCC(=O)Nc1nc2ccccc2[nH]1 |  |  |  |  | Not Active | Not Active |  |  |  |  |  | Not Active | Kd [2]: Not Active; Kd [3]: Not Active; Kd [4]: Not Active; Kd ([10]; read-out: Kd): 41.4 µM
CC(=O)Nc1nccc(-c2cccc(N)c2)n1 |  |  |  |  |  |  |  |  |  |  |  | Not Active | 
NCC1O[C@H](O[C@H]2[C@@H](O)[C@H](O[C@H]3[C@H](O)[C@@H](N)C[C@@H](N)[C@@H]3O[C@H]3O[C@H](CN)[C@@H](O)[C@H](O)[C@H]3N)O[C@@H]2CO)[C@H](N)[C@@H](O)[C@@H]1O (stereo partly specified) | 8.5 | 5.7 | 6.1 | 6.5 |  |  | 15.6 | 24.1 | -6.72 | -9.51 | -2.8 |  | 
NCCCC(=O)NCC(=O)Nc1nc2ccccc2[nH]1 |  |  |  |  | Not Active | Not Active |  |  |  |  |  | Not Active | Kd [2]: Not Active; Kd [3]: Not Active; Kd [4]: Not Active
NCC(=O)NCC(=O)Nc1nc2ccccc2[nH]1 |  |  |  |  | Not Active | Not Active |  |  |  |  |  | Not Active | Kd [2]: Not Active; Kd [3]: Not Active; Kd [4]: Not Active
CC(=O)Nc1nccc(-c2cccc(NC(=O)c3nccnc3N)c2)n1 | 232 | 81.5 | 138 | 158 | Not Active | Not Active |  |  |  |  |  |  | 
CC(=O)Nc1nccc(-c2cccc(NC(=O)c3cccnc3)c2)n1 | 659 | 137 | 290 | 360 | Not Active | Not Active |  |  |  |  |  |  | 
NCCCC[C@H](N)C(=O)O [LYSINE] |  |  |  |  |  |  |  |  |  |  |  | Not Active | 

Further lines, with some results ahead:

Kd ([1]; read-out: Kd) [µM] | Kd ([2]; read-out: Kd) [µM] | Kd ([3]; read-out: Kd) [µM] | Kd ([4]; read-out: Kd) [µM] | Kd [5] | Kd [6] | Kd ([5]; read-out: Kd) [µM] | Kd ([6]; read-out: Kd) [µM] | deltaG [7] [kcal/mol] | deltaH [8] [kcal/mol] | TdeltaS [9] [kcal/mol] | Kd [1] | Compound | further results
863 | 177 | 284 | 438 | Not Active | Not Active |  |  |  |  |  |  | CC(=O)Nc1nccc(-c2cccc(NC(=O)CN)c2)n1 | 
16.8 | 9.4 | 11.6 | 14.2 |  |  | 27.7 | 42.6 | -6.33 | -8.08 | -1.74 |  | CC(=O)Nc1nccc(-c2cccc(NC(=O)CCCCCNC(=O)[C@@H](N)CN)c2)n1 | 
220 | 102 | 122 | 159 | Not Active | Not Active |  |  |  |  |  |  | CC(=O)Nc1nccc(-c2cccc(NC(=O)CCCN)c2)n1 | 
19.7 | 8.6 | 11.8 | 15 |  |  | 50.8 | 262 | -6.19 | -11.6 | -5.4 |  | CC(=O)Nc1nccc(-c2cccc(NC(=O)[C@@H](N)Cc3c[nH]cn3)c2)n1 | 
10.1 | 5.1 | 6.5 | 7.6 |  |  | 18.4 | 30.1 | -6.64 | -9.63 | -2.99 |  | CC(=O)Nc1nccc(-c2cccc(NC(=O)[C@@H](N)CN)c2)n1 | 
36.9 | 29.5 | 31.5 | 34.8 |  |  | 38.4 | 32.5 | -6.02 | -1.91 | 4.11 |  | CC(=O)Nc1nccc(-c2cccc(NC(=O)CCCN(C)C)c2)n1 | 
11.8 | 10.8 | 11.1 | 11.4 |  |  | 12 | 11.4 | -6.62 | -0.741 | 5.88 |  | CC(=O)Nc1nccc(-c2cccc(NC(=O)CCCCCN)c2)n1 | Kd [10]: Not Active; Kd [11]: 17.1 µM; Selectivity ratio [12]: 1.4
4.3 | 3.2 | 3.4 | 3.8 |  |  | 6.2 | 8.6 | -7.17 | -6.14 | 1.03 |  | CC(=O)Nc1nccc(-c2cccc(NC(=O)[C@@H](N)CCCCN)c2)n1 | Ratio [13]: 2; Kd ([10]; read-out: Kd): 554 µM; Kd [11]: 10.5 µM; Selectivity ratio [14]: > 100; Selectivity ratio [12]: 2.4
